How the values were obtained:
Rhizobium leguminosarum = assay: Sugar/sugar alcohol study: bacteria counts on pea seeds; format: cell-based; settings: 15° C., sorbitol vs sucrose vs trehalose
Experimental: Partially desiccated inoculant products were prepared by first growing Rhizobium leguminosarum in a Rhizobium leguminosarum bv. viceae culture medium. Two different culture mediums were used, 1×R1 and 1.5×R1, which are pea and lentil fermentation medium. The 1.5×R1 has 50% more media components than 1×R1. After 3 days culture growth, a sugar or a sugar alcohol was aseptically added to the culture. The amount of sugar or sugar alcohol added to the culture is shown in final concentration (weight/volume) in Table 9 below. The culture was then allowed a 2 day conditioning phase during which the culture continued to grow thereby creating the partially desiccated inoculant product. The partially desiccated inoculant product was then applied to pea seeds at a rate of 3.1 L inoculant product/1136 kg seed. The seeds were then mixed in a bag by shaking to evenly distribute the inoculant product on the seeds. The seeds were then stored at 15° C.
The bacteria counts were performed in a similar manner as the previous examples. That is, 50 seeds were put in 100 ml of phosphate buffer in a dilution bottle. The bottle was shaken for 5 minutes. 10 fold serial dilutions were made and 0.1 ml of proper dilution was spread onto nutrient medium plates. The viable bacteria cells on seed were calculated based on the colony numbers on the plates.

B. japonicum strain 532C = assay: Sorbitol versus trehalose: on-seed rhizobial viability on soybean seed; format: cell-based; settings: trehalose 30% w/v vs sorbitol 20% w/v; seeds at 18-20° C., time zero and 7 days, FIG. 13
Experimental: An experiment was run to determine whether sorbitol or trehalose is better suited for application to soybean seeds with B japonicum. The following steps were performed: • 1. B. japonicum strain 532C was grown for 5 days in 1.5×Bj2 (a soybean fermentation medium) at 30° C. and 165 rpm. • 2. Either sorbitol (20% w/v) or trehalose (30% w/v) was added to the culture, and the cultures were maintained for 5 days at 30° C., 165 rpm. • 3. 2.7 ml/kg of either sorbitol or trehalose amended culture was applied to soybean seed. Seeds were evenly coated. • 4. Seeds were stored at 18-20° C. • 5. On-seed rhizobial viability was monitored at time zero and after 7 days

| SMILES | extension of on-seed shelf life of Rhizobium leguminosarum, ranking of sugars/sugar alcohols tested (Rhizobium leguminosarum) | suitability for application to B japonicum on soybean seeds (on-seed rhizobial viability) (B. japonicum strain 532C) |
| --- | --- | --- |
| OC[C@@H](O)[C@@H](O)[C@H](O)[C@@H](O)CO [sorbitol] | top performing | – |
| OC[C@H]1O[C@H](O[C@H]2O[C@H](CO)[C@@H](O)[C@H](O)[C@H]2O)[C@H](O)[C@@H](O)[C@@H]1O [trehalose] | – | better suited than sorbitol |
